In patent publication US10363239B2, “Method for inhibiting growth of cancer cells” (Pain Therapeutics, Inc., priority 2013, dated 2019):
Read-outs that look alike come from different tables or passages of the source.

Assays:
[1] = molecular target: FLNA pentapeptide of SEQ ID NO: 1 (Bn-VAKGL) (Homo sapiens, UniProt P21333); test: FITC-NLX-based FLNA screening assay (inhibition of FITC-naloxone binding to Bn-VAKGL on streptavidin plates); conditions: 10 nM FITC-NLX
mu opiate receptor (MOR) = test: MOR agonist activity using [35S]GTPγS binding assay in striatal membranes; format: biochemical; conditions: for MOR agonist activity ([35S]GTPγS binding), FLNA-Binding Compound as Agonist 1 μM + BFNA: 1 μM compound + 1 μM β-funaltrexamine
Outline: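 Striatal membranes (200 μg) were preincubated 5 min at 30 °C in HEPES pH 7.5 with 100 mM NaCl, 1 mM MgCl2 and 0.5 nM [35S]GTPγS, then 5 min more with 0.1–10 μM compound. Gαo was immunoprecipitated and bound radioactivity counted by scintillation.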

[2] = read-out: Percent Binding Inhibition, FLNA-binding compound 0.01 μM
[3] = read-out: Percent Binding Inhibition, FLNA-binding compound 0.1 μM
[4] = read-out: Percent Binding Inhibition, FLNA-binding compound 1 μM
[5] = Series C-1, 0.1 μM compound, relative to DAMGO
[6] = Series C-1, 0.1 μM compound, [35S]GTPγS binding to Gαo, striatal membranes
[7] = Series C-1, 1 μM compound + 1 μM β-FNA
[8] = Series C-1, 1 μM compound + β-FNA, relative to DAMGO + BFNA
[9] = Series C-1, 1 μM compound, relative to DAMGO
[10] = Series C-1, 1 μM compound, [35S]GTPγS binding to Gαo, striatal membranes
[11] = 0.1 μM compound relative to DAMGO
[12] = 1 μM compound + BFNA relative to DAMGO + BFNA
[13] = 1 μM compound relative to DAMGO
[14] = Series C-2, 0.1 μM compound, relative to DAMGO
[15] = Series C-2, 0.1 μM compound, [35S]GTPγS binding to Gαo, striatal membranes
[16] = Series C-2, 1 μM compound + 1 μM β-FNA
[17] = Series C-2, 1 μM compound + β-FNA, relative to DAMGO + BFNA
[18] = Series C-2, 1 μM compound, relative to DAMGO
[19] = Series C-2, 1 μM compound, [35S]GTPγS binding to Gαo, striatal membranes
[20] = FLNA-binding compound 0.01 μM, read-out: Percent Binding Inhibition
[21] = FLNA-binding compound 0.1 μM, read-out: Percent Binding Inhibition
[22] = FLNA-binding compound 1 μM, read-out: Percent Binding Inhibition

Compound	inhibition at 0.01 µM [1, 2] [%]	inhibition at 0.1 µM [1, 3] [%]	inhibition at 1 µM [1, 4] [%]	MOR agonist activity ([35S]GTPγS binding), FLNA-Binding Compound as Agonist 0.1 μM (mu opiate receptor (MOR); 0.1 μM compound) [%]	% DAMGO (0.1 μM) (mu opiate receptor (MOR); [11]) [%]	MOR agonist activity ([35S]GTPγS binding), FLNA-Binding Compound as Agonist 1 μM (mu opiate receptor (MOR); 1 μM compound) [%]	MOR agonist activity ([35S]GTPγS binding), FLNA-Binding Compound as Agonist 1 μM + BFNA (mu opiate receptor (MOR)) [%]	% DAMGO + BFNA (mu opiate receptor (MOR); [12]) [%]	% DAMGO (1 μM) (mu opiate receptor (MOR); [13]) [%]	other results
Cc1ccc(S(=O)(=O)N2CCC3(CC2)OCCN3S(=O)(=O)c2ccc(C)cc2)cc1 [Compound C0001]	34.8	42.9	51.3							% DAMGO (0.1 μM) (mu opiate receptor (MOR); [5]): 75.2%; Concentration of FLNA-Binding Compound as Agonist 0.1 μM (mu opiate receptor (MOR); [6]): 129.3%; Concentration of FLNA-Binding Compound as Agonist 1 μM + BFNA (mu opiate receptor (MOR); [7]): 33.9%; % DAMGO + BFNA (mu opiate receptor (MOR); [8]): 52.9%; % DAMGO (1 μM) (mu opiate receptor (MOR); [9]): 66.6%; Concentration of FLNA-Binding Compound as Agonist 1 μM (mu opiate receptor (MOR); [10]): 184.3%
O=S(=O)(c1ccc(-c2ccccc2)cc1)N1CCC2(CC1)OCCN2S(=O)(=O)c1ccc(-c2ccccc2)cc1 [Compound C0010]	39.8	42.7	47.1							% DAMGO (0.1 μM) (mu opiate receptor (MOR); [5]): 80.7%; Concentration of FLNA-Binding Compound as Agonist 0.1 μM (mu opiate receptor (MOR); [6]): 136.5%; Concentration of FLNA-Binding Compound as Agonist 1 μM + BFNA (mu opiate receptor (MOR); [7]): 89.1%; % DAMGO + BFNA (mu opiate receptor (MOR); [8]): 135.0%; % DAMGO (1 μM) (mu opiate receptor (MOR); [9]): 114.9%; Concentration of FLNA-Binding Compound as Agonist 1 μM (mu opiate receptor (MOR); [10]): 307.0%
COc1ccccc1CC(=O)CC1c2c(cc3c(c2OC)OCO3)CC[N+]1(C)C (stereo not drawn) [Compound 5009]	42.5	47.3	54.3							% DAMGO (0.1 μM) (mu opiate receptor (MOR); Series B, 0.1 μM compound, relative to DAMGO): 66.9%; MOR agonist activity, percent [35S]GTPγS binding at the stated compound concentration (mu opiate receptor (MOR); Series B, 0.1 μM compound, [35S]GTPγS binding to Gαo, striatal membranes): 128.5%; MOR agonist activity, percent [35S]GTPγS binding at the stated compound concentration (mu opiate receptor (MOR); Series B, 1 μM compound + 1 μM β-FNA): 87.5%; % DAMGO + BFNA (mu opiate receptor (MOR); Series B, 1 μM compound + β-FNA, relative to DAMGO + BFNA): 181.5%; % DAMGO (1 μM) (mu opiate receptor (MOR); Series B, 1 μM compound, relative to DAMGO): 83.2%; MOR agonist activity, percent [35S]GTPγS binding at the stated compound concentration (mu opiate receptor (MOR); Series B, 1 μM compound, [35S]GTPγS binding to Gαo, striatal membranes): 270.4%
CCN(CC)CC(O)COC1CC(C)CCC1C(C)C (stereo not drawn) [Compound A0032]	43	50.3	54.5	226.9	115.6	257.8	133.0	180.0	93.4	
CC(=O)c1ccc(S(=O)(=O)N2CCOC23CCN(C)CC3)cc1 [Compound C0093M]	44.8	49.9	53.5							% DAMGO (0.1 μM) (mu opiate receptor (MOR); [14]): 81.3%; MOR agonist activity, percent [35S]GTPγS binding at the stated compound concentration (mu opiate receptor (MOR); [15]): 140.0%; MOR agonist activity, percent [35S]GTPγS binding at the stated compound concentration (mu opiate receptor (MOR); [16]): 44.0%; % DAMGO + BFNA (mu opiate receptor (MOR); [17]): 127.5%; % DAMGO (1 μM) (mu opiate receptor (MOR); [18]): 96.4%; MOR agonist activity, percent [35S]GTPγS binding at the stated compound concentration (mu opiate receptor (MOR); [19]): 211.8%
C=CCN1CCC2(CC1)OCCN2S(=O)(=O)c1ccc(C(C)=O)cc1 [Compound C0096M]										inhibition at 0.01 µM [1, 20]: 43%; inhibition at 0.1 µM [1, 21]: 48.3%; inhibition at 1 µM [1, 22]: 55%; % DAMGO (0.1 μM) (mu opiate receptor (MOR); [14]): 105.9%; MOR agonist activity, percent [35S]GTPγS binding at the stated compound concentration (mu opiate receptor (MOR); [15]): 186.4%; MOR agonist activity, percent [35S]GTPγS binding at the stated compound concentration (mu opiate receptor (MOR); [16]): 127.1%; % DAMGO + BFNA (mu opiate receptor (MOR); [17]): 577.7%; % DAMGO (1 μM) (mu opiate receptor (MOR); [18]): 130.0%; MOR agonist activity, percent [35S]GTPγS binding at the stated compound concentration (mu opiate receptor (MOR); [19]): 328.9%
CC1CCC(C(C)C)C(OCC(O)Cn2ccc3ccccc32)C1 (stereo not drawn) [Compound A0078]	50.1	55.8	57.6	250.5	124.9	289.9	147.8	274.2	92.3	
CC(=O)c1ccc(S(=O)(=O)N2CCC3(CC2)NC(=O)C(Cc2cnc[nH]2)N3S(=O)(=O)c2ccc(C(C)=O)cc2)cc1 (stereo not drawn) [Compound C0084M]	47.2	53.7	55.9							% DAMGO (0.1 μM) (mu opiate receptor (MOR); [5]): 97.3%; Concentration of FLNA-Binding Compound as Agonist 0.1 μM (mu opiate receptor (MOR); [6]): 163.1%; Concentration of FLNA-Binding Compound as Agonist 1 μM + BFNA (mu opiate receptor (MOR); [7]): 133.2%; % DAMGO + BFNA (mu opiate receptor (MOR); [8]): 280.4%; % DAMGO (1 μM) (mu opiate receptor (MOR); [9]): 114.9%; Concentration of FLNA-Binding Compound as Agonist 1 μM (mu opiate receptor (MOR); [10]): 255.5%
CC1CCC(C(C)C)C(OCC(O)CN2CCCC2)C1 (stereo not drawn) [Compound A0001]	39.7	45.6	52.4	94.3	63.1	181.7	22.2	83.8	78.9	
OC(COc1cccc(C(F)(F)F)c1)CN1CCc2ccccc2C1 (stereo not drawn) [Compound A0054]				74.9	44.4	159.2	114.1	348.9	63.9	inhibition at 0.01 µM [1, 20]: 28.7%; inhibition at 0.1 µM [1, 21]: 35.8%; inhibition at 1 µM [1, 22]: 41.4%
CC1CN(CC(O)COc2ccccc2)CC(C)O1 (stereo not drawn) [Compound A0025]	39	49.8	53.2	58.6	33.2	138.7	52.2	198.5	54.5	
COc1ccc(OCC(O)CN2CCOc3ccccc32)cc1 (stereo not drawn) [Compound A0076]				79.8	46.4	172.6	41.2	119.4	78.6	inhibition at 0.01 µM [1, 20]: 36.1%; inhibition at 0.1 µM [1, 21]: 40%; inhibition at 1 µM [1, 22]: 44.9%
CC1CN(CC(O)COc2cccc(C(F)(F)F)c2)CC(C)O1 (stereo not drawn) [Compound A0051]				290.4	148.0	386.6	211.6	286.3	140.1	inhibition at 0.01 µM [1, 20]: 45.9%; inhibition at 0.1 µM [1, 21]: 45.4%; inhibition at 1 µM [1, 22]: 52.1%
COc1ccc(S(=O)(=O)N2CCOC23CCN(C)CC3)cc1 [Compound C0088M]	40.1	52.4	56.1							% DAMGO (0.1 μM) (mu opiate receptor (MOR); [14]): 160.5%; MOR agonist activity, percent [35S]GTPγS binding at the stated compound concentration (mu opiate receptor (MOR); [15]): 276.3%; MOR agonist activity, percent [35S]GTPγS binding at the stated compound concentration (mu opiate receptor (MOR); [16]): 177.1%; % DAMGO + BFNA (mu opiate receptor (MOR); [17]): 513.3%; % DAMGO (1 μM) (mu opiate receptor (MOR); [18]): 161.7%; MOR agonist activity, percent [35S]GTPγS binding at the stated compound concentration (mu opiate receptor (MOR); [19]): 355.3%
